These results are taken from US20080280810A1, “PEPTIDES HAVING AFFINITY FOR BODY SURFACES” (priority 2006, published 2008).

A short description of test [1]: Color retention after shampoo treatment, peptide as sealant with Basic Violet 2 dye. Also noted: species or system human. The conditions noted are these: for Delta E: 0.50 wt % Basic Violet 2, peptide 0.25 wt %, 30 min contact, after 10 shampoo treatments, dye alone 37.34; for hair color retention compared to the dye alone (in words): Basic Violet 2, by Delta E values, vs Comparative Example 13. The procedure:
The peptides used in this Example were prepared as described in Examples 1 and 2. The color retention was quantified using a spectrophotometric measurement technique. A peptide given as SEQ ID NO:41 or SEQ ID NO:42 (38 mg), produced via fermentation as described in Examples 1 and 2, was added to 15 g of an aqueous 0.50 wt % solution of Basic Violet 2 (Abbey Color, Philadelphia, Pa.) and the solution was allowed to stir for 1 h. A natural white hair tress (1 cm wide, potted, International Hair Importers & Products Inc., Bellerose, N.Y.) was inserted into a 15 mm×125 mm test tube and 13 mL of the peptide/dye mixture was injected into the test tube. The hair tress was immersed in contact with the colorant solution for 30 min and the colorant solution was agitated using a magnetic stirrer. The tress was removed, allowed to drip dry, and then air dried for 30 min. The hair tress was then subjected to a water rinse using copious amounts of deionized water, followed by a shampoo treatment with embrocation for 30 seconds. The shampoo treatment involved the application of Pantene Pro-V Sheer Volume shampoo (Proctor & Gamble, Cincinnati, Ohio) to the hair as follows. A quarter-sized drop of the shampoo was distributed evenly over the hair tress and then was massaged aggressively into the hair for 30 sec, after which the hair tress was rinsed with water to remove the shampoo. The hair tress was then dried at room temperature. The shampooing step was repeated 9 more times to give a total of 10 shampoo treatments. The entire procedure described above was repeated without the addition of the hair-binding peptide to serve as a control. The color intensity after the shampoo was measured as described in Examples 4-7.

Test [2] can be described thus: Co-application of multi-block peptide with semi-permanent dye (Arianor Ebony), color retention. Also noted: species or system human. The conditions noted are these: difference in Delta E between peptide sample and peptide free control after 3 embrocation cycles (about 12 manual shampoos); pH 8.5-9.0; >2 benefit, >4 substantial benefit. The procedure:
A 0.5% aqueous solution of Arianor Ebony (Sensient Technologies Corp, Milwaukee, Wis.) containing 3% benzyl alcohol and 0.05% diazolidinyl urea (biocide) was prepared. Dye insolubles were removed by filtration and the pH of the dye solution was adjusted to 8.50-9.0, using ethanolamine.
Approximately 1 mL of the dye solution was added to selected wells of a 24-well plate (Thomson Instrument Co., Oceanside, Calif.; part # 931565). A multi-block peptide (see Table 12) was dissolved in a solution consisting of 3 wt % benzyl alcohol and 95 wt % water to yield a peptide concentration of 2 wt % or approximately 20 mg/mL. The pH was adjusted to 8.5-9.0 using ethanolamine. The peptide solution was then pipetted into test wells containing dye solution in the amount of 1 mL or 0.2 mL respectively. The total volume in each test well was then adjusted to 2 mL where necessary using 3% aqueous benzyl alcohol (pH adjusted to 8.5-9.0 with ethanolamine). Peptide free controls consisted of 1 mL of dye solution diluted to 2 mL with the pH adjusted aqueous benzyl alcohol solution.
Baseline […] readings were made on one inch long tresses (see below) using an X-RITE® SP78™ Sphere Spectrophotometer (X-Rite, Inc., Grandville, Mich.), by placing the hair tress into the photosensor and calculating L*, a* and b* parameters representing the photometer response. All measurements were the average of three individual determinations.
The tresses (potted on one end with resin) of natural white, 85% gray or regular bleached hair (International Hair Importers and Products, Bellerose, N.Y.) were immersed in the peptide/dye solution and the entire well plate was agitated on a VORTEX-GENIE® 2 Mixer (Scientific Industries, Bohemia, N.Y.) at a speed setting of 1 for 30 minutes. The tresses were removed from the wells, rinsed for 30 seconds under flowing deionized water and then air dried.
The following complement of beads was then added to each well containing a hair tress: (8 beads in all; 4 Novagen Coli Rollers Plating Beads—sterilized (EMD Biosciences, San Diego, Calif.; Catalog No. 71013), 2 BioSpec 6.35 mm glass beads (BioSpec Products, Bartlesville, Okla.; Catalog No. 11079635), and 2 BioSpec 3.2 mm Stainless Steel Bead (Catalog No. 11079132ss).
Then 2.5 mL of aqueous 50% Pantene Pro V® shampoo (Proctor & Gamble Co., Cincinnati, Ohio) was pipetted into each well. The plate was placed on a VWR® VX-2500 Multi-tube Vortexer (VWR, West Chester, Pa.) for 5 minutes to simulate shampooing with embrocation. The hair tresses were then rinsed under flowing deionized water and air dried. This cycle was repeated two more times except that the length of time was 10 minutes for both subsequent embrocation cycles. (This treatment was previously determined to simulate approximately 12 manual shampoo cycles.) At the conclusion of the third embrocation cycle L*, a* and b* values were measured and Delta E values (ΔE) were calculated using equation 1 below:
where L*=the lightness variable and a* and b* are the chromaticity coordinates of CIELAB colorspace as defined by the International Commission of Illumination (CIE) (Minolta, Precise Color Communication—Color Control From Feeling to Instrumentation, Minolta Camera Co., 1996).
The Delta E value (ΔE) indicates color retention relative to the non-dyed hair and larger Delta E values indicate better performance. Values listed in the table represent the difference in Delta E values between the peptide-containing sample and the peptide free control. This difference is indicative of color retention after shampoo or water rinse treatments and positive values indicate better performance relative to the peptide free controls (Table 12).

For “P-EQISGSLVAAPW-KRKRK-D (PEQISGSLVAAPWKRKRKD; Peptide having affinity for hair) [HC 74]”, in test [1], the “Delta E” value is recorded as 38.91 and the “hair color retention compared to the dye alone (in words)” value is listed as “a small improvement in hair color retention”. The “ΔE Retention Ebony Dye with 85% Gray Hair” value in test [2] worked out at 7.5.
The corresponding values for “P-TPPELLHGAPRS-KRKRK-D (PTPPELLHGAPRSKRKRKD; Peptide having affinity for hair) [HC 71]” are 37.02, “no improvement in hair color retention” and 2.9.
